# Laboratory results: BigSolDB 2.1
# Details: in water
smiles,measurement,setting,value
CC(C)Br,solubility (mole fraction),295.25 K,0.000587
same,solubility (mole fraction),300.15 K,0.00082
same,solubility (mole fraction),303.55 K,0.00104
same,solubility (mole fraction),306.25 K,0.00121
same,solubility (mole fraction),310.35 K,0.00157
same,solubility (mole fraction),313.25 K,0.00189
same,solubility (mole fraction),316.15 K,0.00227
same,solubility (mole fraction),321.25 K,0.00307
same,solubility (mole fraction),323.25 K,0.00343
same,solubility (mole fraction),325.55 K,0.00394
same,solubility (mole fraction),329.35 K,0.00483
same,solubility (mole fraction),331.25 K,0.00536
same,solubility (mole fraction),334.15 K,0.0063
same,solubility (mole fraction),337.35 K,0.00743
same,solubility (mole fraction),340.55 K,0.0087
same,solubility (mole fraction),343.15 K,0.0101
same,solubility (mole fraction),345.45 K,0.0112
same,solubility (mole fraction),348.55 K,0.0127
same,solubility (mole fraction),350.15 K,0.0139
same,solubility (mole fraction),352.35 K,0.0154
same,solubility (mole fraction),354.75 K,0.0171
NC(N)=S,solubility (mole fraction),290.75 K,0.0256
same,solubility (mole fraction),293.05 K,0.0289
same,solubility (mole fraction),296.65 K,0.0347
same,solubility (mole fraction),300.25 K,0.0413
same,solubility (mole fraction),303.15 K,0.0474
same,solubility (mole fraction),307.1 K,0.0583
same,solubility (mole fraction),310.15 K,0.0641
same,solubility (mole fraction),313.15 K,0.071
same,solubility (mole fraction),315.85 K,0.0806
same,solubility (mole fraction),318.35 K,0.0886
same,solubility (mole fraction),320.75 K,0.0969
same,solubility (mole fraction),323.25 K,0.103
same,solubility (mole fraction),326.05 K,0.116
same,solubility (mole fraction),328.45 K,0.126
same,solubility (mole fraction),330.55 K,0.135
same,solubility (mole fraction),333.25 K,0.15
same,solubility (mole fraction),336.45 K,0.161
same,solubility (mole fraction),340.75 K,0.183
same,solubility (mole fraction),343.55 K,0.198
same,solubility (mole fraction),347.35 K,0.218
same,solubility (mole fraction),351.15 K,0.239
same,solubility (mole fraction),353.45 K,0.251
same,solubility (mole fraction),355.75 K,0.265
